From ChEMBL document CHEMBL1201862, “PubChem BioAssay data set” (2004)
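Following 48 hours of exposure in 96-well plates, responses at five concentrations were used to interpolate endpoints linearly. Here, GI50 denotes the concentration required for 50% inhibition of growth.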 Calls of active or inactive are those of the source. Rule as the data show it: active = GI50 up to about 1.1 µM and inactive = higher.

Columns and labels:
Assay in all cases: growth of human tumour cells (NCI), 48 h
[1] = test system: SF-539
[2] = test system: SR
[3] = test system: BT-549
[4] = test system: LOX IMVI
[5] = test system: SK-OV-3
[6] = test system: A549
[7] = test system: SK-MEL-28
[8] = test system: RPMI-8226
[9] = test system: MDA-N
[10] = test system: SNB-19
[11] = test system: NCI-H23
[12] = test system: OVCAR-8
[13] = test system: UO-31
[14] = test system: COLO 205
[15] = test system: HL-60
[16] = test system: SW-620
[17] = test system: DLD-1
[18] = test system: DMS-273
[19] = test system: M19-MEL

SMILES	GI50 [1]	GI50 [2]	GI50 [3]	GI50 [4]	GI50 [5]	GI50 [6]	GI50 [7]	GI50 [8]	GI50 [9]	GI50 [10]	GI50 [11]	GI50 [12]	GI50 [13]	GI50 [14]	GI50 [15]	GI50 [16]	GI50 [17]	GI50 [18]	GI50 [19]
COc1cccc(C2c3cc4c(cc3OC(C)(N3CCCC3)C2C)OCO4)c1O (stereo not drawn)	4.31 µM (inactive)	2.06 µM (inactive)	3.26 µM (inactive)	4.82 µM (inactive)	3.44 µM (inactive)	6.7 µM (inactive)	12.2 µM (inactive)	5.32 µM (inactive)	1.93 µM (inactive)	4.06 µM (inactive)	3.05 µM (inactive)	7.87 µM (inactive)	10.9 µM (inactive)	3.13 µM (inactive)	2.71 µM (inactive)	4.01 µM (inactive)	–	–	–
CN[C@@H](C)[C@@H](N)c1ccccc1	> 100 µM (inactive)	–	–	> 100 µM (inactive)	> 100 µM (inactive)	> 100 µM (inactive)	> 100 µM (inactive)	> 100 µM (inactive)	–	> 100 µM (inactive)	> 100 µM (inactive)	> 100 µM (inactive)	> 100 µM (inactive)	> 100 µM (inactive)	–	> 100 µM (inactive)	> 100 µM (inactive)	> 100 µM (inactive)	–
Cc1cccc2c(=O)c3c(O)cc(O)cc3n(C)c12	> 100 µM (inactive)	> 100 µM (inactive)	> 100 µM (inactive)	> 100 µM (inactive)	> 100 µM (inactive)	> 100 µM (inactive)	> 100 µM (inactive)	> 100 µM (inactive)	> 100 µM (inactive)	> 100 µM (inactive)	> 100 µM (inactive)	> 100 µM (inactive)	–	> 100 µM (inactive)	> 100 µM (inactive)	> 100 µM (inactive)	–	–	–
Cc1cc2c(C=O)n[nH]c2c(C#N)c1C	27.7 µM (inactive)	–	–	39.4 µM (inactive)	> 100 µM (inactive)	> 100 µM (inactive)	48.4 µM (inactive)	> 100 µM (inactive)	–	> 100 µM (inactive)	29.6 µM (inactive)	43 µM (inactive)	34.5 µM (inactive)	> 100 µM (inactive)	–	40.6 µM (inactive)	> 100 µM (inactive)	43.1 µM (inactive)	60.8 µM (inactive)
O=C(n1c(=O)n(-c2ccc(Cl)cc2)c(=O)n1C(=O)C(Cl)(Cl)Cl)C(Cl)(Cl)Cl	> 100 µM (inactive)	> 100 µM (inactive)	66.5 µM (inactive)	> 100 µM (inactive)	> 100 µM (inactive)	> 100 µM (inactive)	> 100 µM (inactive)	> 100 µM (inactive)	> 100 µM (inactive)	> 100 µM (inactive)	> 100 µM (inactive)	> 100 µM (inactive)	31 µM (inactive)	> 100 µM (inactive)	> 100 µM (inactive)	> 100 µM (inactive)	–	–	–
Cc1cc(O)ccc1C1(c2ccc(F)cc2)OC(=O)c2ccccc21 (stereo not drawn)	2.99 µM (inactive)	13.4 µM (inactive)	0.208 µM (active)	2.31 µM (inactive)	3.65 µM (inactive)	5.24 µM (inactive)	13.1 µM (inactive)	21.7 µM (inactive)	11.6 µM (inactive)	4.15 µM (inactive)	0.787 µM (active)	0.413 µM (active)	4 µM (inactive)	1.82 µM (inactive)	34 µM (inactive)	12.9 µM (inactive)	–	–	–
COc1cccc(-c2cccc(SC)n2)n1	32.1 µM (inactive)	18.1 µM (inactive)	31.3 µM (inactive)	33.1 µM (inactive)	56.5 µM (inactive)	23.8 µM (inactive)	29.6 µM (inactive)	23.4 µM (inactive)	29.6 µM (inactive)	40.7 µM (inactive)	23.8 µM (inactive)	35.6 µM (inactive)	30.5 µM (inactive)	19.1 µM (inactive)	12.1 µM (inactive)	32 µM (inactive)	–	–	–
CCN(CC)CCn1c2cc3c(cc2c(=O)c2cccnc21)OCO3	4.92 µM (inactive)	4.34 µM (inactive)	> 10 µM (inactive)	3.71 µM (inactive)	9.84 µM (inactive)	5.11 µM (inactive)	7.91 µM (inactive)	3.93 µM (inactive)	8.93 µM (inactive)	8.07 µM (inactive)	8.75 µM (inactive)	4.62 µM (inactive)	–	2.85 µM (inactive)	4.58 µM (inactive)	4.26 µM (inactive)	–	–	–
CCOC(=O)/C(=C/c1ccc(C(=O)OC)cc1)N(CC)CC	25.3 µM (inactive)	47.9 µM (inactive)	–	63.2 µM (inactive)	50.5 µM (inactive)	24.5 µM (inactive)	> 100 µM (inactive)	42.5 µM (inactive)	–	54.5 µM (inactive)	36.6 µM (inactive)	63 µM (inactive)	37.2 µM (inactive)	70.1 µM (inactive)	27.4 µM (inactive)	35.3 µM (inactive)	–	–	51.1 µM (inactive)
